Laboratory results from US6911454B1, “Method for potentiating primary drugs in treating multidrug resistant disease” (priority 1989, dated 2005).
Read-outs that look alike come from different tables or passages of the source.

Legend:
[1] = test system: CQ-sensitive (FCMSU1/Sudan) strain of P. falciparum; experiment: 3H-adenosine incorporation, chloroquine-sensitive P. falciparum; format: cell-based
Description: (§1) Chloroquine and qinghaosu are commonly used antimalarial drugs.
(§2) The dose (IC50) of each drug or each drug combination required to effect a 50% inhibition in the malarial activity of each strain was determined by establishing a dose response curve for each.
(§3) FCMSU1/Sudan strain and cloned Indochina (W-2) strain of P. falciparum were used. […] The two strains of the parasite were cultured according to the candle jar method of Trager and Jensen, Science, Vol. 193, pages 673-675 (1976). In a given experiment, four-day-old Petri dish cultures (approximately 10% parasitemia) were diluted with medium containing an amount of noninfected type A human erythrocytes to obtain a culture with a final hematocrit of 1.5% and parasitemia of 0.5-1.0%. The resulting culture was ready for addition to microtitration plates with ninety-six flat-bottom wells.
(§4) The testing procedure used was similar to that described by Desjardins et al. in “Antimicrobial Agents and Chemotherapy,” Vol. 16, pages 710-718 (1979). […] 25 microliters radioactive (0.5 microCi) [2,8-^3H] adenosine. The microtitration plates were incubated in a candle jar for an additional 18 hours, at 37° C.
(§5) As the malaria parasite grows ^3H-adenosine is metabolized and incorporates into polymeric RNA and DNA. The labeled polymers are trapped on glass fiber filters and unincorporated material is washed away. In the absence of drug there is 100% incorporation of the labeled material. When drugs interfere (directly or indirectly), an inhibitory dose of 50% (IC50) can be calculated. The experiments were repeated three times except where noted. Statistical analysis was done using Student's T-test for significance. Van Kyke et al. “Exp. Parasitol,” Vol. 64, pages 418-423 (1987).
(§6) The test procedure was basically the same as outlined above.

[2] = test system: CQ-resistant (W-2) strain of P. falciparum; experiment: 3H-adenosine incorporation, chloroquine-resistant P. falciparum; format: cell-based; settings: for Ratio (S/R): IC50 against sensitive strain divided by IC50 for resistant strain
Description: as §1, §2, §3, §4, §5, §6

[3] = test system: resistant (K562-R7) cancel cells; experiment: doxorubicin fluorescence test by flow cytometry; format: cell-based; settings: FIG. 12; doxorubicin used alone
DX20 cancer cells = experiment: modified MTT assay, drug sensitivity of DX20 cells; format: cell-based, human; settings: DX20 cells
Description: The MES-SA/DX20 cell line was established according to the development methods of Sikic et al., Resistance to Antineoplastic Drugs, Chap. 3, CRC Press, Ed. David Kessel, pp. 37-47 (1989). In vitro drug sensitivity testing consisted of two assay models, the modified MTT assay (Mossman, J. Immunolog. Methods, Vol. 65, pp. 55-63, 1983) and the colonogenic assay. In addition to this, the combinations were investigated in vivo in nude mice bearing the DX20 cell line. The MTT assay was chosen because of its practical advantages in large-scale screening. The assay involved cellular conversion of tetrazolium salt to a colored formazan serving as a measurement of cell viability.
In a given experiment, culture media, 50 microliters, containing 8,000-25,000 cells, depending on the proliferation rate of the cell line, was pipetted into each well of several 96-well microtiter plates. The cells were allowed to attach overnight. […] The cytotoxic drug, also at a concentration below that previously established as an IC50, was then added at decreasing concentrations by 25% to several half plate sections. The cells were allowed to grown for 72 hours. 100 microliters of media was then removed and 25 microliters of 5 mg/ml MTT (Sigma, St. Louis, Mo.) in phosphate buffered saline was added to each well. The plates were kept in an incubator at 37° C. and 5% CO2. After 2-3 hours of incubation, the extraction buffer containing 20% w/v SDS and 50% DMF was added and the plates again incubated overnight. The plates were read at a test wavelength of 570 nm on a multiwell spectrophotometer (Model MR 700, Dynatech Laboratories, Alexandria, Va.). Each drug combination was tested in triplicate. Percent survival was defined as percent of optical density (OD) of the drug-treated wells to that of the control detected by the spectrophotometer.
The in vitro drug sensitivity testing of ethyl fangchinoline consisted of two assay models, the modified MTT (Mossman 1983) and a colony formation assay in which a direct measure was taken by quantitation of colony formation. The MTT assay was chosen because of its practical advantages in large scale screening. The assay involves cellular conversion of tetrozolium salt to a colored formazan serving as a measurement of cell viability.
Two human cell lines were chosen as the primary targets of study in reversing multiple-drug resistance. The MES-SA, a sarcoma, and its resistant subline, DX-20, were kindly donated by Dr. B. Sikic (U of Stanford, Stanford, Calif.). The A2780, an ovarian cancer, and its resistant subline, A2780-ad10, were provided by Roswell Park Memorial Inst. (Buffalo, N.Y.).
Culture media, 50 ul containing 8,000 to 25,000 cells depending on the proliferation rate of the line, was pipetted into each of 96 wells in a flat bottom tissue plate. The cells were incubated overnight to allow adherence. One hundred ul of ethyl fangchinoline, at a concentration below that previously established as an independent IC50, was added to each experimental well. […] The plates were then incubated for 72 hours before MTT was added and the analysis of O.D. values interpreted by a multi-plate scanner (MR700, Dynatech).

DX20 tumor = experiment: tumor measurements in nude mice bearing the DX20 tumor; format: in vivo; design: unit not given here
Description: (See FIG. 6). Tumor size was calculated using the formula (4 Pi/3) X*Y*2Z.
The study was done with 3-4 week old male balb-C nude mice. The animals were injected with DX20 1×10^7 cells.

[4] = test system: multidrug resistant human cancer (DX20); format: in vivo, mice; settings: d-tetrandrine 0.5, 1, 1.5 mg injections; doxorubicin 5.5 mg per kg; about one month
Description: It is only important that they be administered sufficiently close together that the cancer is exposed to both simultaneously. For example, nude mice infected with a multidrug resistant human cancer were given 0.5 mg, 1 mg and 1.5 mg respectively in three separate injections, 72 hours apart.

[5] = Table VII, chloroquine-sensitive strain, drug alone, read-out: IC50 S
[6] = Table VII, chloroquine-resistant strain, drug alone, read-out: IC50 R
[7] = Plasmodium falciparum, read-out: IC50 S
[8] = Plasmodium falciparum, read-out: IC50 R
[9] = Plasmodium falciparum, read-out: IC50 DRUG COMBINATION TT(1.0 uM) CQ(0.3 uM)
[10] = Plasmodium falciparum, read-out: IC50 DRUG COMBINATION TT(2.0 uM) CQ(0.2 uM)
[11] = Plasmodium falciparum, read-out: IC50 DRUG COMBINATION TT(3.0 uM) CQ(0.1 uM)
[12] = Plasmodium falciparum, read-out: IC50 SINGLE DRUG
[13] = Day 7 Prior to Treatment (baseline)
[14] = Day 24 After Treatment, d-tetrandrine days 6, 8, 10, doxorubicin 5.5 mg/kg day 12

## COc1cc2c3cc1Oc1c(OC)c(OC)cc4c1[C@@H](Cc1ccc(O)c(c1)Oc1ccc(cc1)C[C@@H]3N(C)CC2)N(C)CC4 [BB, berbamine]
[1]; [5]
  IC50: 0.46 µM
[2]
  Ratio (S/R): 2.7
[2]; [6]
  IC50: 0.19 µM

## COc1ccc2cc1Oc1ccc(cc1)C[C@H]1c3c(cc4c(c3Oc3cc5c(cc3OC)CCN(C)[C@@H]5C2)OCO4)CCN1C [CE, cepharanthine]
[1]; [7]
  IC50: 1 µM
[2]
  Ratio (S/R): 1.1
[2]; [8]
  IC50: 0.94 µM

## CCN(CC)CCCC(C)Nc1ccnc2cc(Cl)ccc12 (stereo not shown) [CQ, chloroquine]
[1]; [9]
  IC50: 0.0165 ± 0.0021 µM
[1]; [10]
  IC50: 0.0114 ± 0.0023 µM
[1]; [11]
  IC50: 0.0074 ± 0.0013 µM
[1]; [12]
  IC50: 0.0267 ± 0.0038 µM
[2]; 3.0 micromolar d-tetrandrine added to 0.1 micromolar chloroquine
  lowering of the IC50 of chloroquine: 43 Fold
[2]; [9]
  IC50: 0.0238 ± 0.0041 µM
[2]; [10]
  IC50: 0.008 ± 0.0016 µM
[2]; [11]
  IC50: 0.0042 ± 0.0003 µM
[2]; [12]
  IC50: 0.186 ± 0.0049 µM

## COc1ccc2cc1Oc1ccc(cc1)C[C@H]1c3cc(c(OC)cc3CCN1C)Oc1c(OC)c(OC)c(OC)c3c1[C@H](C2)N(C)CC3 [HE, hernandezine]
[1]; [5]
  IC50: 0.37 µM
[2]
  Ratio (S/R): 2.8
[2]; [6]
  IC50: 0.13 µM

## COc1ccc2cc1Oc1ccc(cc1)C[C@@H]1c3cc(c(OC)cc3CCN1C)Oc1c(OC)c(OC)cc3c1[C@H](C2)N(C)CC3 [IT, isotetrandrine]
[1]; [5]
  IC50: 0.48 µM
[2]; [6]
  IC50: 0.14 µM

## COc1cc(C[C@H]2c3cc(OC)c(OC)c(OC)c3CCN2C)c(Oc2cc3c(cc2OC)-c2c(OC)c(OC)c(OC)c4c2[C@H](C3)N(C)CC4)cc1OC [ME, methoxadiantifoline]
[1]; [7]
  IC50: 5.3 µM
[2]
  Ratio (S/R): 5.5
[2]; [8]
  IC50: 0.97 µM
[2]; conclusion from Table VII
  effectiveness against resistant versus sensitive malarial strain: substantially more effective against the chloroquine resistant malarial strain than against the chloroquine sensitive malarial strain

## COc1cc2c3cc1Oc1c(O)c(OC)cc4c1[C@@H](Cc1ccc(O)c(c1)Oc1ccc(cc1)C[C@@H]3N(C)CC2)N(C)CC4 [OB, obamegine]
[1]; [5]
  IC50: 0.66 µM
[2]
  Ratio (S/R): 1.5
[2]; [6]
  IC50: 0.48 µM

## COc1ccc2cc1Oc1ccc(cc1)C[C@@H]1c3cc(c(OC)cc3CCN1C)Oc1c(OC)c(OC)cc3c1[C@@H](C2)N(C)CC3 [PH, phacanthine]
[1]; [5]
  IC50: 0.6 µM
[2]; [6]
  IC50: 0.5 µM

## COc1cc2c3cc1Oc1c(OC)c(OC)cc4c1[C@@H](Cc1ccc(O)c(c1)Oc1ccc(cc1)C[C@H]3N(C)CC2)N(C)CC4 [PY, pycnamine]
[1]; [5]
  IC50: 0.38 µM
[2]
  Ratio (S/R): 0.9
[2]; [6]
  IC50: 0.42 µM

## C[C@@H]1CC[C@H]2[C@@H](C)C(=O)O[C@@H]3O[C@@]4(C)CC[C@@H]1[C@]32OO4 [QHS, qinghaosu]
[1]; S STRAIN, TT/QHS 10:1, mean ± S.D, read-out: IC50 DRUG COMBINATION TT(2.0 uM) QHS(0.2 uM)
  IC50: 0.0114 ± 0.0006 µM
[1]; Table IV, S STRAIN, mean ± S.D, read-out: IC50 SINGLE DRUG
  IC50: 0.0367 ± 0.0047 µM
[1]; read-out: IC50 DRUG COMBINATION TT(1.0 uM) QHS(0.3 uM), S STRAIN, TT/QHS 10:3, mean ± S.D
  IC50: 0.0216 ± 0.0027 µM
[1]; read-out: IC50 DRUG COMBINATION TT(3.0 uM) QHS(0.1 uM), S STRAIN, TT/QHS 30:1, mean ± S.D
  IC50: 0.0073 ± 0.0012 µM
[2]; R STRAIN, TT/QHS 10:1, mean ± S.D, read-out: IC50 DRUG COMBINATION TT(2.0 uM) QHS(0.2 uM)
  IC50: 0.0072 ± 0.0014 µM
[2]; Table IV, R STRAIN, mean ± S.D, read-out: IC50 SINGLE DRUG
  IC50: 0.0478 ± 0.0145 µM
[2]; read-out: IC50 DRUG COMBINATION TT(1.0 uM) QHS(0.3 uM), R STRAIN, TT/QHS 10:3, mean ± S.D
  IC50: 0.0179 ± 0.0041 µM
[2]; read-out: IC50 DRUG COMBINATION TT(3.0 uM) QHS(0.1 uM), R STRAIN, TT/QHS 30:1, mean ± S.D
  IC50: 0.0046 ± 0.0014 µM

## COc1ccc2cc1Oc1ccc(cc1)C[C@H]1c3cc(c(OC)cc3CCN1C)Oc1c(O)c(OC)cc3c1[C@H](C2)N(C)CC3 [TA, fangchinoline]
[1]; [5]
  IC50: 0.26 µM
[2]
  Ratio (S/R): 1.2
[2]; [6]
  IC50: 0.22 µM

## COc1cc(C[C@H]2c3cc(OC)c(OC)cc3CCN2C)c(Oc2cc3c(cc2OC)-c2c(OC)c(OC)cc4c2[C@H](C3)N(C)CC4)cc1OC [TH, thalicarpine]
[1]; Plasmodium falciparum, Table VII, chloroquine-sensitive strain, drug alone, read-out: IC50 S
  IC50: 1.7 µM
[2]
  Ratio (S/R): 1.3
[2]; Plasmodium falciparum, Table VII, chloroquine-resistant strain, drug alone, read-out: IC50 R
  IC50: 1.3 µM

## COc1cccc2c1C(=O)c1c(O)c3c(c(O)c1C2=O)C[C@@](O)(C(=O)CO)C[C@@H]3O[C@H]1C[C@H](N)[C@H](O)[C@H](C)O1 [doxorubicin]
[3]
  doxorubicin concentration (fluorescence) in resistant versus sensitive cells: lower concentration of doxorubicin than does a sensitive cancer
DX20 cancer cells; Homo sapiens, d-tetrandrine 2 × 10^−7 molar, read-out: IC50 doxorubicin in d-tetrandrine
  IC50: 0.66 µM
DX20 cancer cells; Homo sapiens, d-tetrandrine 4 × 10^−7 molar, read-out: IC50 doxorubicin in d-tetrandrine
  IC50: 0.36 µM
DX20 cancer cells; Homo sapiens, ethyl fangchinoline 1 × 10^−6 molar, read-out: IC50 doxorubicin in ethyl fangchinoline
  IC50: 0.48 µM
DX20 cancer cells; Homo sapiens, ethyl fangchinoline 2 × 10^−7 molar, read-out: IC50 doxorubicin in ethyl fangchinoline
  IC50: 0.47 µM
DX20 cancer cells; Homo sapiens, ethyl fangchinoline 4 × 10^−7 molar, read-out: IC50 doxorubicin in ethyl fangchinoline
  IC50: 0.16 µM
DX20 cancer cells; Homo sapiens, single agent, read-out: IC50 alone
  IC50: 5.4 µM
DX20 tumor; [13]
  Tumor Measurements Depth: 1.25
  Tumor Measurements Length: 3.50
  Tumor Measurements Width: 3.87
DX20 tumor; [14]
  Tumor Measurements Depth: 21.50
  Tumor Measurements Length: 24.50
  Tumor Measurements Width: 19.10
[4]
  tumor outcome: very large tumors which were unabated

## cycleanine
[1]; [5]
  IC50: 3.2 µM
[2]
  Ratio (S/R): 0.8
[2]; [6]
  IC50: 4.2 µM

## ethyl fangchinoline
DX20 cancer cells; single agent, read-out: IC50 alone
  IC50: 6.5 µM
